ChEMBL document CHEMBL1151203, “Phelligridins C-F: cytotoxic pyrano[4,3-c][2]benzopyran-1,6-dione and furo[3,2-c]pyran-4-one derivatives from the fungus Phellinus igniarius” (J Nat Prod, 2004)

What was measured:
Assay type in all cases: functional, cell-based
HCT-8 = assay: Cytotoxicity against human HCT8 cells after 96 hrs by MTT assay; details: HCT-8, 96 h
BGC-823 = assay: Cytotoxicity against human BGC823 cells after 96 hrs by MTT assay; details: BGC-823, 96 h
Bel-7402 = assay: Cytotoxicity against human Bel7402 cells after 96 hrs by MTT assay; details: Bel-7402, 96 h
KETR3 = assay: Cytotoxicity against human Ketr3 cells after 96 hrs by MTT assay; details: KETR3, 96 h
A549 = assay: Cytotoxicity against human A549 cells after 96 hrs by MTT assay; details: A549, 96 h
MCF7 = assay: Cytotoxicity against human MCF7 cells after 96 hrs by MTT assay; details: MCF7, 96 h

SMILES | IC50 (HCT-8) | IC50 (BGC-823) | IC50 (Bel-7402) | IC50 (KETR3) | IC50 (A549) | IC50 (MCF7)
CC1=CC(=O)C2(O1)C(c1cc3oc(=O)c4cc(O)c(O)cc4c3c(=O)o1)=Cc1cc(O)c(O)cc12 (stereo not given) [PHELLIGRIDIN E] | > 105 µM | 96 µM | 55 µM | > 0.105 µM | 79 µM | 70 µM
O=c1oc2cc(/C=C/c3ccc(O)cc3)oc(=O)c2c2cc(O)c(O)cc12 [PHELLIGRIDIN C] | 126 µM | > 137 µM | 10 µM | 0.094 µM | 12 µM | 72 µM
COC(=O)c1c(O)cc(/C=C/c2ccc(O)c(O)c2)oc1=O [PHELLIGRIDIN B] | 139 µM | 146 µM | 50 µM | 0.144 µM | > 164 µM | 143 µM
CC(=O)/C=C/c1ccc(O)c(O)c1 | 227 µM | 243 µM | 153 µM | 0.245 µM | > 280 µM | 141 µM
COC1(CC(C)=O)Oc2cc(/C=C/c3ccc(O)c(O)c3)oc(=O)c2/C1=C/c1ccc(O)c(O)c1 (stereo not given) [PHELLIGRIDIN F] | > 104 µM | 92 µM | 46 µM | > 0.104 µM | 84 µM | 85 µM
CC(=O)/C=C(O)/C=C/c1ccc(O)c(O)c1 [HISPOLON] | 199 µM | 205 µM | 38 µM | 0.206 µM | 183 µM | 25 µM
CC[C@@]1(O)C(=O)OCc2c1cc1n(c2=O)Cc2cc3c(CN(C)C)c(O)ccc3nc2-1 [TOPOTECAN] | 1.5 µM | 4.3 µM | 1.2 µM | 0.0049 µM | 3.2 µM | 1.8 µM
O=c1oc2cc(/C=C/c3ccc(O)c(O)c3)oc(=O)c2c2cc(O)c(O)cc12 [PHELLIGRIDIN D] | 99 µM | > 131 µM | 8 µM | 0.09 µM | 16 µM | 37 µM
Cc1cc2oc(=O)c3cc(O)c(O)cc3c2c(=O)o1 [PHELLIGRIDIN A] | > 192 µM | 181 µM | 110 µM | > 0.192 µM | > 192 µM | 109 µM
CC1=CC(=O)C2(O1)c1c(cc(/C=C/c3ccc(O)c(O)c3)oc1=O)OC2c1ccc(O)c(O)c1 (stereo not given) [INOSCAVIN A] | > 108 µM | > 108 µM | 88 µM | > 0.108 µM | > 108 µM | > 108 µM
